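Briefly, cells in 96-well plates were exposed to five compound concentrations for 48 h, and endpoints were estimated by linear interpolation. Here, GI50 denotes the concentration required for 50% inhibition of growth. Definition used: TGI = concentration required for complete inhibition of growth.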
How the values were obtained:
Test in all cases: NCI tumour cell line growth inhibition, 48 h
[1] = system: PC-3 prostate
[2] = system: SF-539 CNS
[3] = system: SK-MEL-28 melanoma
[4] = system: 786-0 renal
[5] = system: OVCAR-5 ovarian
[6] = system: HCT-116 colon
[7] = system: MDA-MB-435
[8] = system: COLO 205 colon
[9] = system: KM12 colon
[10] = system: OVCAR-4 ovarian
[11] = system: LOX IMVI melanoma
[12] = system: SF-268 CNS
[13] = system: MOLT-4 leukemia
[14] = system: U251 CNS
[15] = system: MDA-MB-231 breast
[16] = system: SW-620 colon
[17] = system: A549 NSCLC
[18] = system: CAKI-1 renal
[19] = system: ACHN renal
[20] = system: SK-MEL-5 melanoma
[21] = system: SNB-19 CNS
[22] = system: SK-OV-3 ovarian
[23] = system: HCT-15 colon
[24] = system: OVCAR-8 ovarian
[25] = system: UACC-257 melanoma
[26] = system: OVCAR-3 ovarian
[27] = system: T-47D breast
[28] = system: UO-31 renal
[29] = system: SN12C renal
[30] = system: HOP-62 NSCLC
[31] = system: HCC-2998 colon
[32] = system: SK-MEL-2 melanoma
[33] = system: HT29 colon
[34] = system: NCI-H460 lung
[35] = system: M14 melanoma
[36] = system: NCI-H522 lung
[37] = system: DU-145 prostate
[38] = system: IGROV1 ovarian
[39] = system: K-562 leukemia
[40] = system: RXF 393 renal
[41] = system: NCI/ADR-RES ovarian
[42] = system: BT-549 breast
[43] = system: UACC-62 melanoma
[44] = system: MALME-3M melanoma
[45] = system: SF-295 CNS
[46] = system: SNB-75 CNS
[47] = system: MCF7 breast
[48] = system: TK-10 renal
[49] = system: HOP-92 NSCLC
[50] = system: NCI-H226 lung
[51] = system: CCRF-CEM leukemia
[52] = system: HS 578T breast
[53] = system: RPMI-8226 leukemia
[54] = system: SR leukemia
[55] = system: EKVX NSCLC
[56] = system: A498 renal
[57] = system: HL-60(TB) leukemia
[58] = system: NCI-H23 lung

`CC(=O)N(O)CCCCCNC(=O)CCC(=O)N(O)CCCCCNC(=O)CCC(=O)N(O)CCCCCN(CCCCCCCCCC[P+](c1ccccc1)(c1ccccc1)c1ccccc1)CCCCCCCCCC[P+](c1ccccc1)(c1ccccc1)c1ccccc1` was tested, and the GI50 [1] was 2.95 µM, the TGI [1] was 13.4 µM and the GI50 [2] was 2.8 µM. It also gave a TGI [2] of 10.4 µM, a GI50 [3] of 3.62 µM and a TGI [3] of 18.3 µM. It also gave a GI50 [4] of 7.1 µM, a TGI [4] of 26.6 µM and a GI50 [5] of 3.46 µM. It also gave a TGI [5] of 15.5 µM, a GI50 [6] of 2.93 µM and a TGI [6] of 23.8 µM. The GI50 [7] was 2.76 µM, the TGI [7] was 11.3 µM and the GI50 [8] was 1.58 µM. It also gave a TGI [8] of 3.55 µM, a GI50 [9] of 3.43 µM and a TGI [9] of 21.1 µM. It also gave a GI50 [10] of 2.73 µM, a TGI [10] of 17.5 µM and a GI50 [11] of 3.21 µM. It also gave a TGI [11] of 10.2 µM, a GI50 [12] of 4.6 µM and a TGI [12] of 26.4 µM. For the same compound, the GI50 [13] was 3.52 µM, the TGI [13] was 18.9 µM and the GI50 [14] was 2 µM. For the same compound, the TGI [14] was 13 µM, the GI50 [15] was 4.13 µM and the TGI [15] was 19.6 µM. The GI50 [16] was 4.18 µM, the TGI [16] was 16.5 µM and the GI50 [17] was 3.47 µM. It also gave a TGI [17] of over 100 µM, a GI50 [18] of 10.8 µM and a TGI [18] of 24.4 µM. For the same compound, the GI50 [19] was 16.1 µM, the TGI [19] was 69.9 µM and the GI50 [20] was 3.65 µM. The TGI [20] was 15.8 µM, the GI50 [21] was 3.09 µM and the TGI [21] was 14.1 µM. For the same compound, the GI50 [22] was 2.3 µM, the TGI [22] was 6.15 µM and the GI50 [23] was 14.6 µM. It also gave a TGI [23] of 43.9 µM, a GI50 [24] of 3.07 µM and a TGI [24] of 14.8 µM. The GI50 [25] was 2.66 µM, the TGI [25] was 10 µM and the GI50 [26] was 4.22 µM. It also gave a TGI [26] of 23.2 µM, a GI50 [27] of 1.78 µM and a TGI [27] of 8.85 µM. For the same compound, the GI50 [28] was 16 µM, the TGI [28] was over 100 µM and the GI50 [29] was 2.88 µM. The TGI [29] was 11.1 µM, the GI50 [30] was 3.46 µM and the TGI [30] was 16.1 µM. It also gave a GI50 [31] of 3.45 µM, a TGI [31] of 13.9 µM and a GI50 [32] of 2.61 µM. For the same compound, the TGI [32] was 7.86 µM, the GI50 [33] was 2.84 µM and the TGI [33] was 11.4 µM. For the same compound, the GI50 [34] was 2.38 µM, the TGI [34] was 11.5 µM and the GI50 [35] was 4.11 µM. The TGI [35] was 21.9 µM, the GI50 [36] was 2.52 µM and the TGI [36] was 10.7 µM. For the same compound, the GI50 [37] was 5.21 µM, the TGI [37] was 25.4 µM and the GI50 [38] was 2.83 µM. For the same compound, the TGI [38] was 16.8 µM, the GI50 [39] was 1.47 µM and the TGI [39] was 15.4 µM. It also gave a GI50 [40] of 3.3 µM, a TGI [40] of 14.5 µM and a GI50 [41] of 31.3 µM. The TGI [41] was over 100 µM, the GI50 [42] was 2.15 µM and the TGI [42] was 9 µM. The GI50 [43] was 3.35 µM, the TGI [43] was 15.3 µM and the GI50 [44] was 4.11 µM. For the same compound, the TGI [44] was 20.3 µM, the GI50 [45] was 2.99 µM and the TGI [45] was 14.1 µM. It also gave a GI50 [46] of 2.69 µM, a TGI [46] of 11.4 µM and a GI50 [47] of 2.29 µM. The TGI [47] was 10.8 µM, the GI50 [48] was 9 µM and the TGI [48] was 34.2 µM. The GI50 [49] was 1.49 µM, the TGI [49] was 6.82 µM and the GI50 [50] was 5.02 µM. It also gave a TGI [50] of 23.9 µM, a GI50 [51] of 2.5 µM and a TGI [51] of 23.4 µM. It also gave a GI50 [52] of 3.77 µM, a TGI [52] of 30.8 µM and a GI50 [53] of 2.12 µM. The TGI [53] was 9.63 µM, the GI50 [54] was 2.71 µM and the TGI [54] was 11.2 µM. The GI50 [55] was 1.35 µM, the TGI [55] was 13 µM and the GI50 [56] was 18.9 µM. It also gave a TGI [56] of 81.2 µM, a GI50 [57] of 2.04 µM and a TGI [57] of 6.01 µM.
`COc1ccc2c(c1)c(CC(=O)[Se]CC#N)c(C)n2C(=O)c1ccc(Cl)cc1` gave a GI50 [1] of 2.26 µM, a TGI [1] of 7.88 µM and a GI50 [2] of 2.04 µM. The TGI [2] was 4.43 µM, the GI50 [3] was 2.38 µM and the TGI [3] was 6.92 µM. For the same compound, the GI50 [4] was 1.88 µM, the TGI [4] was 3.61 µM and the GI50 [5] was 1.92 µM. For the same compound, the TGI [5] was 4.03 µM, the GI50 [6] was 0.359 µM and the TGI [6] was 1.27 µM. The GI50 [7] was 1.79 µM, the TGI [7] was 3.44 µM and the GI50 [8] was 1.59 µM. For the same compound, the TGI [8] was 3.1 µM, the GI50 [9] was 1.46 µM and the TGI [9] was 3.16 µM. The GI50 [10] was 2.18 µM, the TGI [10] was 5.82 µM and the GI50 [11] was 1.91 µM. The TGI [11] was 4.12 µM, the GI50 [12] was 2.28 µM and the TGI [12] was 5.43 µM. For the same compound, the GI50 [13] was 3.37 µM, the TGI [13] was over 100 µM and the GI50 [14] was 2.29 µM. It also gave a TGI [14] of 6.35 µM, a GI50 [15] of 2.2 µM and a TGI [15] of 6.6 µM. It also gave a GI50 [16] of 1.73 µM, a TGI [16] of 3.99 µM and a GI50 [18] of 1.78 µM. The TGI [18] was 3.53 µM, the GI50 [19] was 2.11 µM and the TGI [19] was 5.61 µM. It also gave a GI50 [20] of 1.78 µM, a TGI [20] of 3.23 µM and a GI50 [21] of 3.81 µM. For the same compound, the TGI [21] was 14.6 µM, the GI50 [22] was 2.77 µM and the TGI [22] was 8.16 µM. It also gave a GI50 [23] of 1.2 µM, a TGI [23] of 3 µM and a GI50 [24] of 1.86 µM. It also gave a TGI [24] of 3.86 µM, a GI50 [25] of 2.1 µM and a TGI [25] of 5.19 µM. The GI50 [27] was 2.29 µM, the TGI [27] was 6.15 µM and the GI50 [28] was 1.18 µM. For the same compound, the TGI [28] was 3.94 µM, the GI50 [29] was 3.62 µM and the TGI [29] was 12.7 µM. The GI50 [30] was 1.11 µM, the TGI [30] was 3.2 µM and the GI50 [31] was 1.79 µM. For the same compound, the TGI [31] was 3.5 µM, the GI50 [32] was 1.99 µM and the TGI [32] was 4.5 µM. It also gave a GI50 [33] of 2.01 µM, a TGI [33] of 5.03 µM and a GI50 [34] of 1.97 µM. The TGI [34] was 5.47 µM, the GI50 [35] was 1.43 µM and the TGI [35] was 3.02 µM. For the same compound, the GI50 [36] was 2.07 µM, the TGI [36] was 4.52 µM and the GI50 [37] was 1.79 µM. For the same compound, the TGI [37] was 3.48 µM, the GI50 [38] was 1.7 µM and the TGI [38] was 3.82 µM. For the same compound, the GI50 [39] was 3.17 µM, the TGI [39] was over 100 µM and the GI50 [40] was 1.65 µM. It also gave a TGI [40] of 3.37 µM, a GI50 [58] of 2.36 µM and a TGI [58] of 6.19 µM. For the same compound, the GI50 [41] was 2.42 µM, the TGI [41] was 6.97 µM and the GI50 [42] was 2.05 µM. The TGI [42] was 4.68 µM, the GI50 [43] was 2.16 µM and the TGI [43] was 5.56 µM. For the same compound, the GI50 [44] was 1.94 µM, the TGI [44] was 5.21 µM and the GI50 [45] was 1.72 µM. For the same compound, the TGI [45] was 4.2 µM, the GI50 [46] was 1.91 µM and the TGI [46] was 5.75 µM. The GI50 [47] was 2.02 µM, the TGI [47] was 4.9 µM and the GI50 [48] was 2.66 µM. It also gave a TGI [48] of 7.09 µM, a GI50 [49] of 1.75 µM and a TGI [49] of 4.7 µM. It also gave a GI50 [51] of 2.6 µM, a TGI [51] of over 100 µM and a GI50 [52] of 2.62 µM. It also gave a TGI [52] of 8.91 µM, a GI50 [53] of 3.04 µM and a TGI [53] of 10.6 µM. It also gave a GI50 [54] of 2.27 µM, a TGI [54] of over 100 µM and a GI50 [55] of 1.42 µM. The TGI [55] was 3.45 µM, the GI50 [56] was 2.04 µM and the TGI [56] was 4.75 µM. The GI50 [57] was 2.95 µM and the TGI [57] was over 100 µM.

From PubChem BioAssay (NCI)
